# Results published in patent publication US20160101148A1, “TREATMENT AND PREVENTION OF BACTERIAL SKIN INFECTIONS USING ORITAVANCIN” (priority 2013, published 2016).
# Like-named read-outs stand apart in the source and are kept apart here.
# What was measured:
# [1] = test system: S. aureus strains (14 mecC MRSA, 2 mecA MRSA, ATCC 29213 MSSA); experiment: Broth microdilution MIC determination; format: cell-based, Staphylococcus aureus; settings: Staphylococcus aureus; for MIC: read-out: MIC; for MIC90: mecC strains, read-out: MIC90
# Description: The S. aureus (SA) strains used in this study were: ATCC 43300 (mecA methicillin-resistant SA [MRSA]); ATCC 33591 (mecA MRSA), ATCC 29213 (methicillin-susceptible SA; quality control strain) and 14 mecC MRSA obtained from the Staten Serum Institute (Copenhagen, Denmark).
# Tests with oritavancin included polysorbate-80 (final test concentration of 0.002%) as described (CLSI 2012a; Arhin et al., 2008). Tests with daptomycin included CaCl2 at a concentration of 50 mg/L. MICs were read after 24 h incubation.
# [2] = test system: S. aureus strains (14 mecC MRSA, 2 mecA MRSA, ATCC 29213 MSSA); experiment: In vitro time-kill assays at free peak and free trough concentrations; format: cell-based, Staphylococcus aureus; settings: for Time to cidality (≧3 log decrease): daptomycin ƒCmax 4 mg/L; for Change in cell density at 24 h relative to starting inoculum: daptomycin ƒCmin 0.5 mg/L
# Description: Viable cell count was determined by serial dilution plating, including the use of 25 g/L charcoal suspension to limit antibiotic carryover. […] Time-kill assays were repeated at least twice independently; results presented are from a representative experiment.
# Doubling dilution concentrations of comparator agents were likewise chosen to approximate their fCmax and fCmin levels in plasma when administered at approved dosages for complicated skin and skin structure infections, using pharmacokinetic data and protein binding values from their respective package inserts (DAP [Cubicin®]; LZD [Zyvox®]; VAN [Vancocin®]; Table 3).
# [3] = ATCC 29213 / ATCC 33591 / MRSA / MSSA, ATCC 33591 MRSA (mecA)
# [4] = ATCC 29213 / ATCC 43300 / MRSA / MSSA, ATCC 43300 MRSA (mecA)
smiles,measurement,setting,value
"CCCCCCCCCC(=O)N[C@@H](Cc1c[nH]c2ccccc12)C(=O)N[C@H](CC(N)=O)C(=O)N[C@@H](CC(=O)O)C(=O)N[C@@H]1C(=O)NCC(=O)N[C@@H](CCCN)C(=O)N[C@@H](CC(=O)O)C(=O)N[C@H](C)C(=O)N[C@@H](CC(=O)O)C(=O)NCC(=O)N[C@H](CO)C(=O)N[C@@H]([C@H](C)CC(=O)O)C(=O)N[C@@H](CC(=O)c2ccccc2N)C(=O)O[C@@H]1C [Daptomycin, daptomycin]",MIC,[1]; 57147 MRSA (mecC),0.5 µg/mL
same,MIC,[1]; 70611 MRSA (mecC),0.5 µg/mL
same,MIC,[1]; 73348 MRSA (mecC),0.5 µg/mL
same,MIC,[1]; 73415 MRSA (mecC),1 µg/mL
same,MIC,[1]; 73617 MRSA (mecC),1 µg/mL
same,MIC,[1]; 73829 MRSA (mecC),0.5 µg/mL
same,MIC,[1]; 75814 MRSA (mecC),0.5 µg/mL
same,MIC,[1]; 76918 MRSA (mecC),0.5 µg/mL
same,MIC,[1]; 77431 MRSA (mecC),1 µg/mL
same,MIC,[1]; 77601 MRSA (mecC),0.5 µg/mL
same,MIC,[1]; 77950 MRSA (mecC),0.5 µg/mL
same,MIC,[1]; 77964 MRSA (mecC),0.5 µg/mL
same,MIC,[1]; 78085 MRSA (mecC),1 µg/mL
same,MIC,[1]; 78651 MRSA (mecC),0.5 µg/mL
same,MIC,[1]; ATCC 29213 (MSSA),0.5 µg/mL
same,MIC,[1]; [3],1 µg/mL
same,MIC,[1]; [4],0.5 µg/mL
same,MIC,[1]; all strains tested,0.5 to 1 µg/mL
same,MIC90,[1],1 µg/mL
same,Time to cidality (≧3 log decrease),[2]; 57147 (mecC),1-2 h
same,Change in cell density at 24 h relative to starting inoculum,[2]; 57147 (mecC),+2.7 log CFU/mL
same,Time to cidality (≧3 log decrease),[2]; 70611 (mecC),1-2 h
same,Change in cell density at 24 h relative to starting inoculum,[2]; 70611 (mecC),+1.5 log CFU/mL
same,Change in cell density at 24 h relative to starting inoculum,[2]; 73348 (mecC),+2.6 log CFU/mL
same,Time to cidality (≧3 log decrease),[2]; 73415 (mecC),2-4 h
same,Change in cell density at 24 h relative to starting inoculum,[2]; 73415 (mecC),+1.5 log CFU/mL
same,Time to cidality (≧3 log decrease),[2]; 73617 (mecC),1-2 h
same,Change in cell density at 24 h relative to starting inoculum,[2]; 73617 (mecC),+3.4 log CFU/mL
same,Time to cidality (≧3 log decrease),[2]; 73829 (mecC),1-2 h
same,Change in cell density at 24 h relative to starting inoculum,[2]; 73829 (mecC),+2.1 log CFU/mL
same,Time to cidality (≧3 log decrease),[2]; 75814 (mecC),1-2 h
same,Change in cell density at 24 h relative to starting inoculum,[2]; 75814 (mecC),+3.6 log CFU/mL
same,Time to cidality (≧3 log decrease),[2]; 76918 (mecC),1-2 h
same,Change in cell density at 24 h relative to starting inoculum,[2]; 76918 (mecC),+1.5 log CFU/mL
same,Time to cidality (≧3 log decrease),[2]; 77431 (mecC),1-2 h
same,Change in cell density at 24 h relative to starting inoculum,[2]; 77431 (mecC),+1.9 log CFU/mL
same,Change in cell density at 24 h relative to starting inoculum,[2]; 77601 (mecC),+0.1 log CFU/mL
same,Time to cidality (≧3 log decrease),[2]; 77950 (mecC),1-2 h
same,Change in cell density at 24 h relative to starting inoculum,[2]; 77950 (mecC),+0.9 log CFU/mL
same,Time to cidality (≧3 log decrease),[2]; 77964 (mecC),1-2 h
same,Change in cell density at 24 h relative to starting inoculum,[2]; 77964 (mecC),+1.2 log CFU/mL
same,Time to cidality (≧3 log decrease),[2]; 78085 (mecC),2-4 h
same,Change in cell density at 24 h relative to starting inoculum,[2]; 78085 (mecC),+1.5 log CFU/mL
same,Change in cell density at 24 h relative to starting inoculum,[2]; 78651 (mecC),+1.6 log CFU/mL
same,Time to cidality (≧3 log decrease),[2]; ATCC 29213 (MSSA),2-4 h
same,Change in cell density at 24 h relative to starting inoculum,[2]; ATCC 29213 (MSSA),+3.9 log CFU/mL
same,Change in cell density at 24 h relative to starting inoculum,[2]; ATCC 33591 (mecA),+3.8 log CFU/mL
same,Time to cidality (≧3 log decrease),[2]; ATCC 43300 (mecA),1-2 h
same,Change in cell density at 24 h relative to starting inoculum,[2]; ATCC 43300 (mecA),+3.6 log CFU/mL
same,Activity in time-kill assay,"[2]; S. aureus strains, fCmin",little to no effect or was bacteriostatic
"CC(=O)NC[C@H]1CN(c2ccc(N3CCOCC3)c(F)c2)C(=O)O1 [Linezolid, linezolid]",MIC,[1]; 57147 MRSA (mecC),2 µg/mL
same,MIC,[1]; 70611 MRSA (mecC),2 µg/mL
same,MIC,[1]; 73348 MRSA (mecC),2 µg/mL
same,MIC,[1]; 73415 MRSA (mecC),2 µg/mL
same,MIC,[1]; 73617 MRSA (mecC),2 µg/mL
same,MIC,[1]; 73829 MRSA (mecC),2 µg/mL
same,MIC,[1]; 75814 MRSA (mecC),2 µg/mL
same,MIC,[1]; 76918 MRSA (mecC),2 µg/mL
same,MIC,[1]; 77431 MRSA (mecC),2 µg/mL
same,MIC,[1]; 77601 MRSA (mecC),2 µg/mL
same,MIC,[1]; 77950 MRSA (mecC),2 µg/mL
same,MIC,[1]; 77964 MRSA (mecC),2 µg/mL
same,MIC,[1]; 78085 MRSA (mecC),2 µg/mL
same,MIC,[1]; 78651 MRSA (mecC),2 µg/mL
same,MIC,[1]; ATCC 29213 (MSSA),2 µg/mL
same,MIC,[1]; [3],2 µg/mL
same,MIC,[1]; [4],1 µg/mL
same,MIC,[1]; all strains tested,1 to 2 µg/mL
same,MIC90,[1],2 µg/mL
same,Activity in time-kill assay,"[2]; all tested strains, both fCmin and fCmax",little to no effect or was bacteriostatic
